The record followed here is ChEMBL document CHEMBL5291721, “A preclinical secondary pharmacology resource illuminates target-adverse drug reaction associations of marketed drugs” (Nat Commun, 2023).

Usually AC50 stands for the concentration at which the activity in the assay is half-maximal.

One assay has as its target Acetylcholinesterase (Homo sapiens, UniProt P22303). The format is functional.
Another assay has as its target T1, Adenosine receptor A1 (Homo sapiens, UniProt P30542).
T1 sequence (P30542 whole entry): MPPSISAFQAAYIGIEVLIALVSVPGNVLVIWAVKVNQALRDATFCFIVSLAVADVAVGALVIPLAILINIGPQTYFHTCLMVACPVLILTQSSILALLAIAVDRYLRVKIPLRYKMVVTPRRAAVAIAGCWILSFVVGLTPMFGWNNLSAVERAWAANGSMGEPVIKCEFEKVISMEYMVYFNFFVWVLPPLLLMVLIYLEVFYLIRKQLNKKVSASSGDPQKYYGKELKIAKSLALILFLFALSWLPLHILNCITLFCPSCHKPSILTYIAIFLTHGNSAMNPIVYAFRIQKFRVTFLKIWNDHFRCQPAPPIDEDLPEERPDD

Another assay addresses T2, Adenosine receptor A3 (Homo sapiens, UniProt P0DMS8).
T2 sequence (P0DMS8 whole entry): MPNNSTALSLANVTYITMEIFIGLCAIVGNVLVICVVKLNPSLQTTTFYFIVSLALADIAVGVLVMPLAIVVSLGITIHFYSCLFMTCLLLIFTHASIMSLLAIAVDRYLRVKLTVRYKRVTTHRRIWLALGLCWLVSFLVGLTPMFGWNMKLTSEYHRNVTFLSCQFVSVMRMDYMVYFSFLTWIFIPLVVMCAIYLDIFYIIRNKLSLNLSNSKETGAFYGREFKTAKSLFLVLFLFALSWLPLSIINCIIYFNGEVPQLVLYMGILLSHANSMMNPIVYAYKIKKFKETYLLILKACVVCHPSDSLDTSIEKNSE

Another assay addresses T3, Estrogen receptor (Homo sapiens, UniProt P03372).
T3 sequence (P03372 whole entry): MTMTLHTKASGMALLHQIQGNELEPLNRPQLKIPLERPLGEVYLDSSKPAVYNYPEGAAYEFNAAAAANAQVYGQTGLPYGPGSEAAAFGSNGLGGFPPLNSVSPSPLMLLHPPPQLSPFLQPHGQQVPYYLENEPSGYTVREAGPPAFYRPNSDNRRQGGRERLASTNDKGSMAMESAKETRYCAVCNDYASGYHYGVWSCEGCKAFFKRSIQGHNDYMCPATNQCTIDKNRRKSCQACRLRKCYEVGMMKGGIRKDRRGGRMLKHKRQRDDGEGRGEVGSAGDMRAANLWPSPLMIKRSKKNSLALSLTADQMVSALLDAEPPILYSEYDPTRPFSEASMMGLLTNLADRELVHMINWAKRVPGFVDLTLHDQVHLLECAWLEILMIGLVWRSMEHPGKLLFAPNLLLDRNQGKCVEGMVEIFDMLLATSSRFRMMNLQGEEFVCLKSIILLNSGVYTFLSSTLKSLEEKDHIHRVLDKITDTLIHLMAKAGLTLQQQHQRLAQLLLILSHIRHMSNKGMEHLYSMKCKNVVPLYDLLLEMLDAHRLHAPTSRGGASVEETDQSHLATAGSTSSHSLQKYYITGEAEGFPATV

A further assay deals with Prothrombin (Homo sapiens, UniProt P00734). The format is functional.
Assay [1] concerns the target Vascular endothelial growth factor receptor 2 (Homo sapiens, UniProt P35968). Format: functional.
Assay [2] concerns the target cGMP-inhibited 3',5'-cyclic phosphodiesterase 3A (Homo sapiens, UniProt Q14432). The format is functional.
The target in assay [3] is 3',5'-cyclic-AMP phosphodiesterase 4A (Homo sapiens, UniProt P27815). Format: functional.
3',5'-cyclic-AMP phosphodiesterase 4A, sequence (P27815 whole entry): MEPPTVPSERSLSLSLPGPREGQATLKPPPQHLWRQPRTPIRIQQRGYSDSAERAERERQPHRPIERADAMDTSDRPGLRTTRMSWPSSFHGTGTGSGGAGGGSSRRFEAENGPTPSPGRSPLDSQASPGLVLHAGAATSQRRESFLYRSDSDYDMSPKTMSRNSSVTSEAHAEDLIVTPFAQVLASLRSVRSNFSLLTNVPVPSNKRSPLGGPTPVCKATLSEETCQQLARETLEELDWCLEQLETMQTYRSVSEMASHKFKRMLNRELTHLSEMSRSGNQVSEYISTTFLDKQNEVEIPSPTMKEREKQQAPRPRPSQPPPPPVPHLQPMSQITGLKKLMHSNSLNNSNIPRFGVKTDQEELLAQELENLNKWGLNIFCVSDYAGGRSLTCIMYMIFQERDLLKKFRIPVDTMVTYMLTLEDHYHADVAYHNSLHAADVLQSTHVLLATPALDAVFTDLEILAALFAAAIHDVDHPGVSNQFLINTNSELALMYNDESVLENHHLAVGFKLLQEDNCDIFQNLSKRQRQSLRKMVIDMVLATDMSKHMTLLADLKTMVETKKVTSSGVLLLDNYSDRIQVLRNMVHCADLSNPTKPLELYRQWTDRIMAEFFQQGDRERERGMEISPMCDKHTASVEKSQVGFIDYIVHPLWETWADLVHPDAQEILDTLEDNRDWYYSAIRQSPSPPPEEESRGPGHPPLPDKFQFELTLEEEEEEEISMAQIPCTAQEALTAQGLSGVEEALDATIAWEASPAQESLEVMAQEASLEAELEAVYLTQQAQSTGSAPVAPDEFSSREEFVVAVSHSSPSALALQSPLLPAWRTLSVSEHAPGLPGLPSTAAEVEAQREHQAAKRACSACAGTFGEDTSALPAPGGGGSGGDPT
Another assay deals with T4, Progesterone receptor (Homo sapiens, UniProt P06401).
T4 sequence (P06401 whole entry): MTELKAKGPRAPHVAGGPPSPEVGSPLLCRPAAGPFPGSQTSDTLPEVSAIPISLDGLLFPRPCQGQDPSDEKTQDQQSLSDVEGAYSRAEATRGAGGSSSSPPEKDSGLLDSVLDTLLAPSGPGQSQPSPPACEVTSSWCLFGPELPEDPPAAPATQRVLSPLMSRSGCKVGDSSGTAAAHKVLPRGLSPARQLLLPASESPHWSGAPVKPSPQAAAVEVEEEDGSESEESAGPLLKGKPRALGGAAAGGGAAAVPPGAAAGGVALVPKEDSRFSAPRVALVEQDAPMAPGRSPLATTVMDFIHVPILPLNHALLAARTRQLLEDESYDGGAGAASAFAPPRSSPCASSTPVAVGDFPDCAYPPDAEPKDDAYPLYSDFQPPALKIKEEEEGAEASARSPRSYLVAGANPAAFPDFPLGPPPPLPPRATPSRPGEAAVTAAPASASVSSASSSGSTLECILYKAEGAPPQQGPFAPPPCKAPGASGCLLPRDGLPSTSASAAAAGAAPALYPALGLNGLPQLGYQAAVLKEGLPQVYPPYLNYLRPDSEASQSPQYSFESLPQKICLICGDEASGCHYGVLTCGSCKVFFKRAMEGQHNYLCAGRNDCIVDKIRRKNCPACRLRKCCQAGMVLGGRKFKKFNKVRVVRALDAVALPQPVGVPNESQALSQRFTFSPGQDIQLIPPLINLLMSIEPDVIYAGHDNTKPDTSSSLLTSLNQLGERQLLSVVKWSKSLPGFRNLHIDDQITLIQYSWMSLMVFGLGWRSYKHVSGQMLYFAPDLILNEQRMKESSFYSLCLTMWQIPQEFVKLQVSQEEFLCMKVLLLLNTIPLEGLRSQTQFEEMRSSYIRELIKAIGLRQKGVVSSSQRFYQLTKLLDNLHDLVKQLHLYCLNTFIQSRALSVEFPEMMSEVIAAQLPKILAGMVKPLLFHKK

The target in assay [4] is T5, Prostaglandin G/H synthase 1 (Homo sapiens, UniProt P23219). Format: functional.
T5 sequence (P23219 whole entry): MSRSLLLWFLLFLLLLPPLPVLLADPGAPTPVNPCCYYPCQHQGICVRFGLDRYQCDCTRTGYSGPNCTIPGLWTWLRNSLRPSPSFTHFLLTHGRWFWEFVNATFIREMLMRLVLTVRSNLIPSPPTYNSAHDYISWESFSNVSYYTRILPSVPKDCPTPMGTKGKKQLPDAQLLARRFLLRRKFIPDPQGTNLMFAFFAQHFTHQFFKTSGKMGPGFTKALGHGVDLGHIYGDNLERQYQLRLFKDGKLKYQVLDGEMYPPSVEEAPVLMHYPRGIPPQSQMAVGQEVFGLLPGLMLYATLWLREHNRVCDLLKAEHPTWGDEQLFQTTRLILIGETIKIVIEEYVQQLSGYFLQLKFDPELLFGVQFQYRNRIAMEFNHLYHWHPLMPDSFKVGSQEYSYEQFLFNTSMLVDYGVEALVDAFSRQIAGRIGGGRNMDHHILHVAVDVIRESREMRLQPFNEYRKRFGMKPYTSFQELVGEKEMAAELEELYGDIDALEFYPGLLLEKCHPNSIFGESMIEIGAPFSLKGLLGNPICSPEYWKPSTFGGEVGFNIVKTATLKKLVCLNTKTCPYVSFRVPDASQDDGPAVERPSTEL
Assay [5] addresses T5, Prostaglandin G/H synthase 1. The format is functional. This is another data set of the same source.
The target of assay [6] is T6, Thromboxane A2 receptor (Homo sapiens, UniProt P21731).
T6 sequence (P21731 whole entry): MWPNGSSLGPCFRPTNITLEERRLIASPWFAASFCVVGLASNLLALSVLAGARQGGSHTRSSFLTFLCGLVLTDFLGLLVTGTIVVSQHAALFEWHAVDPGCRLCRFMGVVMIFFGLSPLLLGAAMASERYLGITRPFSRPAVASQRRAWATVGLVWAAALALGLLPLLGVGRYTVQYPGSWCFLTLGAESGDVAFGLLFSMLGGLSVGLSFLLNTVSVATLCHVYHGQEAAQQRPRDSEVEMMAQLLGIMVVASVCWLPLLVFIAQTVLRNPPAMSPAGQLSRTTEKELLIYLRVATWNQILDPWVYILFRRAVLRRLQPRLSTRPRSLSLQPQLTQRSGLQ
Format: functional, cell-based.

Assay [7] deals with T6, Thromboxane A2 receptor. The format is functional, cell-based. This is another data set of the same source.
Another assay deals with T7, D(4) dopamine receptor (Homo sapiens, UniProt P21917).
T7 sequence (P21917 whole entry): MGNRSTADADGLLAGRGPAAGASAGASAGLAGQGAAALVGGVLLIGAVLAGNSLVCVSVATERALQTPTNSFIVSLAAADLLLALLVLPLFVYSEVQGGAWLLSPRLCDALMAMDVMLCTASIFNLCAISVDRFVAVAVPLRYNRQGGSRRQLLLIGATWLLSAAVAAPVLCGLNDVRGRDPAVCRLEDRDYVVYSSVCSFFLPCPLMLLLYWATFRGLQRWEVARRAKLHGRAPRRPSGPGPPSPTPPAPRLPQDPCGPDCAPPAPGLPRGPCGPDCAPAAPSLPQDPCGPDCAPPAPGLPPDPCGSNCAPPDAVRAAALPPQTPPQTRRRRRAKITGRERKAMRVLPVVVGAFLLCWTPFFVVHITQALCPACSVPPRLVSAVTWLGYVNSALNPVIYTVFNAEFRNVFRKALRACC

The target of assay [8] is Voltage-gated inwardly rectifying potassium channel KCNH2 (Homo sapiens, UniProt Q12809). The format is functional. The settings on record: read-out: AC50.
Voltage-gated inwardly rectifying potassium channel KCNH2, sequence (Q12809 whole entry): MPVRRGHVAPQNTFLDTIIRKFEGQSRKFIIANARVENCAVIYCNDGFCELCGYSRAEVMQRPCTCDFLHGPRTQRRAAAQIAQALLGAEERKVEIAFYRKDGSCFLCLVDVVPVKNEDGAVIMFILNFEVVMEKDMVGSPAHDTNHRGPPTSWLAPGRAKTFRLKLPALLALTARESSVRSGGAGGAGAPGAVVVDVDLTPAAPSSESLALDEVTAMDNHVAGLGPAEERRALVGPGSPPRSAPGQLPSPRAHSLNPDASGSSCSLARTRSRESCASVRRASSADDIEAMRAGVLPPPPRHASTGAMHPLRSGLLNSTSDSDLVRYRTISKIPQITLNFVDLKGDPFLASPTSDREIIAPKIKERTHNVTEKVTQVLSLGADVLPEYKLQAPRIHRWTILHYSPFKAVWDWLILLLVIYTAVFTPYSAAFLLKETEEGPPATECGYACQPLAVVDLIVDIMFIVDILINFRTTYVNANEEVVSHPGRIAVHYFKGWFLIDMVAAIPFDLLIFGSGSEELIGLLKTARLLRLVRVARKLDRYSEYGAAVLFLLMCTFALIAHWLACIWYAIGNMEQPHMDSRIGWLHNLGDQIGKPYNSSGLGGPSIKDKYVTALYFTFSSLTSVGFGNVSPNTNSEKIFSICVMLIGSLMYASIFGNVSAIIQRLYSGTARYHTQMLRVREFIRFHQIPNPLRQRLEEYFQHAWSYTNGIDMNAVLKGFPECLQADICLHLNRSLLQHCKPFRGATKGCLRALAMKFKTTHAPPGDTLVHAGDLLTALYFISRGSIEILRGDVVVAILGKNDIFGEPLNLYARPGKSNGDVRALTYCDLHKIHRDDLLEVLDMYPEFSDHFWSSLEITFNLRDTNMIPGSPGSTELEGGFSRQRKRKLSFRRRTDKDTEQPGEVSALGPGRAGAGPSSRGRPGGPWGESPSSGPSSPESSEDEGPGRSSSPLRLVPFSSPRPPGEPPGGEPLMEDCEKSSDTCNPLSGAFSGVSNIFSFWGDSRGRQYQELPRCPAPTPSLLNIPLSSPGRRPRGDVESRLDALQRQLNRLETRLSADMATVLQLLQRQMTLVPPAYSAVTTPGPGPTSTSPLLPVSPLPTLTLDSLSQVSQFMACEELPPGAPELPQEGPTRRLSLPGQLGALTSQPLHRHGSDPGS
Also: assay procedure not described here.

Acetylcholinesterase, sequence (P22303 whole entry): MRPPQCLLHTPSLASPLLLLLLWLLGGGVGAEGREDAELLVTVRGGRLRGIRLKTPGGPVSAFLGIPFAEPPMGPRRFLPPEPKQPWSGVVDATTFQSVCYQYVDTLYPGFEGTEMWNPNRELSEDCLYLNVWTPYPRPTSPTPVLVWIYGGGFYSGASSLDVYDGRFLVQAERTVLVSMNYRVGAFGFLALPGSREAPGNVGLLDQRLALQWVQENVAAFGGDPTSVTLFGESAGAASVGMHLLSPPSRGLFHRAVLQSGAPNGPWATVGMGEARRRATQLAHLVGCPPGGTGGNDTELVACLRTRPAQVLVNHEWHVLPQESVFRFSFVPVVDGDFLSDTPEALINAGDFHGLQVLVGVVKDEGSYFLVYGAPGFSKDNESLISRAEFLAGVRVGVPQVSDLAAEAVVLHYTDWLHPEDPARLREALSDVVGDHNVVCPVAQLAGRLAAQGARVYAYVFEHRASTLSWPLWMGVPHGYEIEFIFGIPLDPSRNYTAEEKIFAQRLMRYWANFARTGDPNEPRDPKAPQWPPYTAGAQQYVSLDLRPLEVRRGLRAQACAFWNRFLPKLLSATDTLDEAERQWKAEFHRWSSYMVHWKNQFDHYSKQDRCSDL
Vascular endothelial growth factor receptor 2, sequence (P35968 whole entry): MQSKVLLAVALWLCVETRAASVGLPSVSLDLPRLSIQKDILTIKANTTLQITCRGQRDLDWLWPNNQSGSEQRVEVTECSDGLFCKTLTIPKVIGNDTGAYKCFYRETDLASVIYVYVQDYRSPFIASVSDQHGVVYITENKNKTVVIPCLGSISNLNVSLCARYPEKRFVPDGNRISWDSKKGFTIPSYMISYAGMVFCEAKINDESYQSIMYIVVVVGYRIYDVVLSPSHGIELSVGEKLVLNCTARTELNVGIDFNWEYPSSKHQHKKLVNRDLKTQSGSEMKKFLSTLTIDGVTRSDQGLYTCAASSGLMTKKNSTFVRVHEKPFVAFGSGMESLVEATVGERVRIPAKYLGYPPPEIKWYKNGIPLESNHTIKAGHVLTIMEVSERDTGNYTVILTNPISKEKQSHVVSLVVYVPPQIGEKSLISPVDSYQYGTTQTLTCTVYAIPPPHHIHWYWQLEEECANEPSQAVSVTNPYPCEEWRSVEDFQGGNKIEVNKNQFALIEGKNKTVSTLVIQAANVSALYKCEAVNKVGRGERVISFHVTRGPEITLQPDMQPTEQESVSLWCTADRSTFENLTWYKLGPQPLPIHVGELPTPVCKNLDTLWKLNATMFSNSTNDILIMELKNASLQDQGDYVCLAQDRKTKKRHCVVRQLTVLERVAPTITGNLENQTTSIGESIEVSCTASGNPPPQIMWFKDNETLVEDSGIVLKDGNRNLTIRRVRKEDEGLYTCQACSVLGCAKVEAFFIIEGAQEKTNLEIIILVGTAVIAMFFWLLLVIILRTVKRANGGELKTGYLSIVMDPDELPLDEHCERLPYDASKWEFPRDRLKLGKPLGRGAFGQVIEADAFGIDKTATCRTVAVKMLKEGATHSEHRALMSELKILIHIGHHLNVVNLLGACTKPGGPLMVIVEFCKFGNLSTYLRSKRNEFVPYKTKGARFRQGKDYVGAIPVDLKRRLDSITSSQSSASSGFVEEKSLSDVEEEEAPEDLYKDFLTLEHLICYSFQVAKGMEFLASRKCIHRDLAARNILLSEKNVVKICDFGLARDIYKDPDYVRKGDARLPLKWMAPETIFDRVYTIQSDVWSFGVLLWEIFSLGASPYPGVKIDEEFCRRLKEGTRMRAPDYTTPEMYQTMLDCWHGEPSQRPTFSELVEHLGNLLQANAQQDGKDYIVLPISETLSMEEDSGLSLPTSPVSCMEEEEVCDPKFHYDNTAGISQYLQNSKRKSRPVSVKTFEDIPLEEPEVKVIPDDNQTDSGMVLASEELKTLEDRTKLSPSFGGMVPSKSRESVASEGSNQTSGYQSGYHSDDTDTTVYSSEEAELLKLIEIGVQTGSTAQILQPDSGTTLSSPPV

Regarding `C=CC[C@]1(O)CC[C@H]2[C@@H]3CCC4=CCCC[C@@H]4[C@H]3CC[C@@]21C` [ALLYLESTRENOL], the concentration at half-maximal activity (AC50) at Acetylcholinesterase was more than 30 µM; on Adenosine receptor A1, more than 30 µM; at Adenosine receptor A3, 3.91 µM; on Estrogen receptor it was 331 nM; at Prothrombin, more than 30 µM; in assay [1], more than 30 µM. The half-maximal activity concentration (AC50) in assay [2] is more than 30 µM; in assay [3] it was more than 30 µM; on Progesterone receptor, 3.9 nM; in [4], 25.5 µM; in assay [5], more than 30 µM; on Thromboxane A2 receptor [6], more than 30 µM. This compound also came in with a concentration at half-maximal activity (AC50) on Thromboxane A2 receptor [7] of more than 30 µM.
As to `COC(=O)[C@@H]1[C@H]2C[C@H]3c4[nH]c5ccccc5c4CCN3C[C@@H]2CC[C@@H]1O` [YOHIMBINE], the AC50 at Acetylcholinesterase was more than 0.3 µM; on D(4) dopamine receptor, more than 10 µM; in [8], 29.1 µM.
